Measured values reported in ChEMBL document CHEMBL3885881, “DrugMatrix”.

Organism: Rattus norvegicus
Test: DrugMatrix - Regimen: Daily Repeat
Format: toxicity, organism-based, Sprague-Dawley
Set-up: regimen Daily Repeat, gender Male, age 6-8 weeks
Settings: in vivo, po, route oral GAVAGE, vehicle 100 % WATER; for ABSOLUTE BASOPHIL / ABSOLUTE EOSINOPHIL / ABSOLUTE LYMPHOCYTE / ABSOLUTE MONOCYTE / ABSOLUTE SEGMENTED NEUTROPHIL / BASOPHIL / EOSINOPHIL / ERYTHROCYTE COUNT / HEMATOCRIT / HEMOGLOBIN / LEUKOCYTE COUNT / LYMPHOCYTE / MEAN CORPUSCULAR HEMOGLOBIN / MEAN CORPUSCULAR HEMOGLOBIN CONCENTRATION / MEAN CORPUSCULAR VOLUME / MONOCYTE / NEUTROPHIL / NUCLEATED RED BLOOD CELLS / PLATELET COUNT: tissue Blood; for ALANINE AMINOTRANSFERASE / ALBUMIN / ALKALINE PHOSPHATASE / ASPARTATE AMINOTRANSFERASE / BLOOD UREA NITROGEN / CARBON DIOXIDE / CHLORIDE / CHOLESTEROL / CREATINE PHOSPHOKINASE / CREATININE / GLUCOSE / LACTATE DEHYDROGENASE / LIPASE / PHOSPHORUS / POTASSIUM / SODIUM / TOTAL BILIRUBIN / TOTAL PROTEIN / URIC ACID: tissue Plasma
[1] = 0 mg/kg, 72 h, dose level Control, time 3 day
[2] = 0 mg/kg, 120 h, dose level Control, time 5 day
[3] = 30 mg/kg, 72 h, dose level Low, time 3 day

With `CC(C)NCC(O)c1ccc(NS(C)(=O)=O)cc1` (centres undefined) [SOTALOL] the “ABSOLUTE BASOPHIL” value [1] was 0 CELLS/uL, the “ABSOLUTE EOSINOPHIL” value [1] was 102 CELLS/uL and the “ABSOLUTE LYMPHOCYTE” value [1] was 12758 CELLS/uL. For the same compound, the “ABSOLUTE MONOCYTE” value [1] was 197.17 CELLS/uL, the “ABSOLUTE SEGMENTED NEUTROPHIL” value [1] was 1259.5 CELLS/uL and the BASOPHIL [1] was 0%. The EOSINOPHIL [1] was 0.83%, the “ERYTHROCYTE COUNT” value [1] was 5.3 x10E6/uL and the HEMATOCRIT [1] was 33.47%. The HEMOGLOBIN [1] was 13.12 G/DL, the “LEUKOCYTE COUNT” value [1] was 14.32 x10E3/uL and the LYMPHOCYTE [1] was 89.33%. The “MEAN CORPUSCULAR HEMOGLOBIN” value [1] was 24.8 pg, the “MEAN CORPUSCULAR HEMOGLOBIN CONCENTRATION” value [1] was 39.18 G/DL and the “MEAN CORPUSCULAR VOLUME” value [1] was 63.25 fL. The MONOCYTE [1] was 1.33%, the NEUTROPHIL [1] was 8.5% and the “NUCLEATED RED BLOOD CELLS” value [1] was 0 /100WBC. The “PLATELET COUNT” value [1] was 1313.17 x10E3/uL, the “ALANINE AMINOTRANSFERASE” value [1] was 52.67 u/L and the ALBUMIN [1] was 4.05 G/DL. The “ALKALINE PHOSPHATASE” value [1] was 372 u/L, the “ASPARTATE AMINOTRANSFERASE” value [1] was 82.83 u/L and the “BLOOD UREA NITROGEN” value [1] was 15 mg/dL. For the same compound, the “CARBON DIOXIDE” value [1] was 25.67 mmol/L, the CHLORIDE [1] was 102.17 MEQ/L and the CHOLESTEROL [1] was 68.83 mg/dL. For the same compound, the “CREATINE PHOSPHOKINASE” value [1] was 285 u/L, the CREATININE [1] was 0.18 mg/dL and the GLUCOSE [1] was 149.17 mg/dL. For the same compound, the “LACTATE DEHYDROGENASE” value [1] was 263.83 u/L, the LIPASE [1] was 10.17 u/L and the PHOSPHORUS [1] was 12.58 mg/dL. For the same compound, the POTASSIUM [1] was 6.58 MEQ/L, the SODIUM [1] was 144.22 MEQ/L and the “TOTAL BILIRUBIN” value [1] was 0.22 mg/dL. For the same compound, the “TOTAL PROTEIN” value [1] was 5.83 G/DL, the “URIC ACID” value [1] was 1.58 mg/dL and the “ABSOLUTE BASOPHIL” value [2] was 0 CELLS/uL. For the same compound, the “ABSOLUTE EOSINOPHIL” value [2] was 24 CELLS/uL, the “ABSOLUTE LYMPHOCYTE” value [2] was 11134.17 CELLS/uL and the “ABSOLUTE MONOCYTE” value [2] was 56.33 CELLS/uL. For the same compound, the “ABSOLUTE SEGMENTED NEUTROPHIL” value [2] was 1235.5 CELLS/uL, the BASOPHIL [2] was 0% and the EOSINOPHIL [2] was 0.17%. The “ERYTHROCYTE COUNT” value [2] was 5.68 x10E6/uL, the HEMATOCRIT [2] was 35.72% and the HEMOGLOBIN [2] was 13.93 G/DL. For the same compound, the “LEUKOCYTE COUNT” value [2] was 12.45 x10E3/uL, the LYMPHOCYTE [2] was 89.5% and the “MEAN CORPUSCULAR HEMOGLOBIN” value [2] was 24.63 pg. For the same compound, the “MEAN CORPUSCULAR HEMOGLOBIN CONCENTRATION” value [2] was 39.13 G/DL, the “MEAN CORPUSCULAR VOLUME” value [2] was 62.97 fL and the MONOCYTE [2] was 0.5%. The NEUTROPHIL [2] was 9.83%, the “NUCLEATED RED BLOOD CELLS” value [2] was 0 /100WBC and the “PLATELET COUNT” value [2] was 1204 x10E3/uL. For the same compound, the “ALANINE AMINOTRANSFERASE” value [2] was 59.5 u/L, the ALBUMIN [2] was 4.38 G/DL and the “ALKALINE PHOSPHATASE” value [2] was 415.67 u/L. The “ASPARTATE AMINOTRANSFERASE” value [2] was 91.33 u/L, the “BLOOD UREA NITROGEN” value [2] was 17 mg/dL and the “CARBON DIOXIDE” value [2] was 26.33 mmol/L. The CHLORIDE [2] was 104.17 MEQ/L, the CHOLESTEROL [2] was 77 mg/dL and the “CREATINE PHOSPHOKINASE” value [2] was 249.67 u/L. For the same compound, the CREATININE [2] was 0.21 mg/dL, the GLUCOSE [2] was 148.33 mg/dL and the “LACTATE DEHYDROGENASE” value [2] was 168.5 u/L. It also gave an LIPASE [2] of 10.17 u/L, a PHOSPHORUS [2] of 12.92 mg/dL and a POTASSIUM [2] of 7.09 MEQ/L. For the same compound, the SODIUM [2] was 148.37 MEQ/L, the “TOTAL BILIRUBIN” value [2] was 0.23 mg/dL and the “TOTAL PROTEIN” value [2] was 6.3 G/DL. For the same compound, the “URIC ACID” value [2] was 1.77 mg/dL, the “ABSOLUTE BASOPHIL” value [3] was 0 CELLS/uL and the “ABSOLUTE EOSINOPHIL” value [3] was 90.67 CELLS/uL. For the same compound, the “ABSOLUTE LYMPHOCYTE” value [3] was 14675.33 CELLS/uL, the “ABSOLUTE MONOCYTE” value [3] was 254 CELLS/uL and the “ABSOLUTE SEGMENTED NEUTROPHIL” value [3] was 1113.33 CELLS/uL. The BASOPHIL [3] was 0%, the EOSINOPHIL [3] was 0.67% and the “ERYTHROCYTE COUNT” value [3] was 5.44 x10E6/uL. For the same compound, the HEMATOCRIT [3] was 34.57%, the HEMOGLOBIN [3] was 13.43 G/DL and the “LEUKOCYTE COUNT” value [3] was 16.13 x10E3/uL. For the same compound, the LYMPHOCYTE [3] was 91%, the “MEAN CORPUSCULAR HEMOGLOBIN” value [3] was 24.7 pg and the “MEAN CORPUSCULAR HEMOGLOBIN CONCENTRATION” value [3] was 38.93 G/DL. The “MEAN CORPUSCULAR VOLUME” value [3] was 63.47 fL, the MONOCYTE [3] was 1.67% and the NEUTROPHIL [3] was 6.67%. For the same compound, the “NUCLEATED RED BLOOD CELLS” value [3] was 0.67 /100WBC, the “PLATELET COUNT” value [3] was 1241 x10E3/uL and the “ALANINE AMINOTRANSFERASE” value [3] was 52.67 u/L. The ALBUMIN [3] was 4.13 G/DL, the “ALKALINE PHOSPHATASE” value [3] was 380.33 u/L and the “ASPARTATE AMINOTRANSFERASE” value [3] was 95.67 u/L. For the same compound, the “BLOOD UREA NITROGEN” value [3] was 15 mg/dL, the “CARBON DIOXIDE” value [3] was 25.67 mmol/L and the CHLORIDE [3] was 102 MEQ/L. The CHOLESTEROL [3] was 74 mg/dL, the “CREATINE PHOSPHOKINASE” value [3] was 490.33 u/L and the CREATININE [3] was 0.16 mg/dL. For the same compound, the GLUCOSE [3] was 152.33 mg/dL, the “LACTATE DEHYDROGENASE” value [3] was 497 u/L and the LIPASE [3] was 10.33 u/L. For the same compound, the PHOSPHORUS [3] was 13.97 mg/dL, the POTASSIUM [3] was 6.87 MEQ/L and the SODIUM [3] was 144.53 MEQ/L. For the same compound, the “TOTAL BILIRUBIN” value [3] was 0.23 mg/dL, the “TOTAL PROTEIN” value [3] was 5.8 G/DL and the “URIC ACID” value [3] was 2.13 mg/dL.
